Test system: western and northern corn rootworm
Assay: Field trial (Example 3): corn rootworm damage by Iowa class, percent of control and synergy threshold
Format: in vivo
Description: The determination of damage by corn rootworm was made according to the following protocol. At stage V4-V6, an evaluation of early stand was made by counting the number of plants per acre. At stage VT-R1, an evaluation of corn rootworm damage was carried out by methods that are well known in the industry, and damage by corn rootworm was reported according to the Iowa 1-6 rating system. In that system, the root systems of 10 corn plants per plot are recovered and scored using the 1-6 rating scale, where: 1=no injury or only a few minor feeding scars, 2=feeding injury evident, but no roots eaten back to 1½ inches of the plant, 3=at least one root eaten off to within 1½ inches of the plant, but never an entire node of roots destroyed, 4=one node of roots eaten back to within 1½ inches of the plant, 5=two nodes (circles) of roots eaten back to within 1½ inches of the plant, 6=three nodes (circles) of roots eaten back to within 1½ inches of the plant.
A field trial was run in accordance with pertinent protocols and in conformance with USDA notification requirements. The purpose of the trial was to determine the efficacy of transgenic event Cry3Bb.11231 in corn seed in combination with corn rootworm seed treatments using imidacloprid.
For each growing site that was selected, the plot design included the following:
The following seed treatment combinations were used for each growing area:
All seed treatments with pesticides were carried out as described in Example 1. In seed treatment number 1 and 2, Gaucho® was used for wire worm protection, but at levels sufficiently low that it would be expected to have no effect on corn rootworms (i.e., at a treatment level of about 60 gm of active/100 kg seed or 0.16 mg active/kernel), otherwise, seed receiving treatment number 2 had only transgenic event Cry3Bb.11231 and no pesticide treatment that would be expected to be effective against corn rootworm.
For seeds having treatments numbered 3 through 5, the pesticides were applied by the methods described in Example 1. For seeds having treatment numbers 6 and 7, commercially available Force® 3G and Lorsban® 15G were applied to the soil in a 5″ band at the time of sowing. The levels of application are as shown and are within the ranges recommended for standard commercial practice.
Corn seeds to be tested were planted and grown at four different locations across several Midwestern states in the United States corn belt according to the protocol described above.
The determination of damage by corn root worm was made according to the protocol described in Example 2.
The combination of imidacloprid seed treatment with corn seed having a Cry3Bb.11231 transgenic event was tested for possible synergy at a level of rootworm damage of 3-6. In the first test, shown in Table 2(A), the percentage of test plants having damage levels of from 3 to 6, on the Iowa 1-6 Scale, was determined for the control and for seeds treated with the pesticide at two levels, and for seeds having the transgenic event, alone and in combination. The following formula was then used to calculate a “synergy threshold”:
(% of control Cry3Bb.11231)*(% of control imidacloprid treatment)/100.
This threshold was compared against the percent of control for the treatment combination (i.e., Cry3Bb.11231 with imidacloprid @ 400 gm/100 kg). If the treatment combination percent of control was below the threshold, then it was concluded that there was synergy.
It was believed that the measurement of rootworm damage at higher damage levels (i.e., levels 3-6) is a useful indicator that correlates with subsequent yield loss due to such damage. The reason for this is that rootworm damage at levels 1 and 2 seldom causes corn plants to fall over and lodge, and such minimal root loss is not believed to reduce the number or weight of kernels per ear. However, root damage at levels of 3 and above increasingly causes lodging and loss of yield. […]

SMILES: O=[N+]([O-])NC1=NCCN1Cc1ccc(Cl)nc1 [Imidacloprid, 1-[(6-chloro-3-pyridinyl)methol]-N-nitro-2-imidazolidinimime]
- PERCENT OF CONTROL (Table 2(A), plants with damage levels 3-6 relative to isohybrid control, imidacloprid @ 400 g/100 kg of seed): 80.5%
- NUMBER OF PLANTS HAVING 3-6 DAMAGE LEVEL (Table 2(B), Iowa 1-6 Scale levels 3-6, imidacloprid @ 400 gm/100 kg): 71.7
- PERCENT OF CONTROL (Table 2(B), damage levels 3-6 relative to untreated control, imidacloprid @ 400 gm/100 kg): 80.5%
- protection against corn rootworm damage (in words) (imidacloprid at 400 gm/100 kg of seed): effective against corn rootworm damage
- CORN ROOTWORM DAMAGE IN EACH IOWA CLASS (IOWA 1-6 SCALE): 1 (plants in Iowa class 1, imidacloprid @ 400 g/100 kg of seed, FORCE and LORSBAN as surface band at planting): 3
- CORN ROOTWORM DAMAGE IN EACH IOWA CLASS (IOWA 1-6 SCALE): 2 (plants in Iowa class 2, imidacloprid @ 400 g/100 kg of seed, FORCE and LORSBAN as surface band at planting): 15
- CORN ROOTWORM DAMAGE IN EACH IOWA CLASS (IOWA 1-6 SCALE): 3 (plants in Iowa class 3, imidacloprid @ 400 g/100 kg of seed, FORCE and LORSBAN as surface band at planting): 36
- CORN ROOTWORM DAMAGE IN EACH IOWA CLASS (IOWA 1-6 SCALE): 4 (plants in Iowa class 4, imidacloprid @ 400 g/100 kg of seed, FORCE and LORSBAN as surface band at planting): 21
- CORN ROOTWORM DAMAGE IN EACH IOWA CLASS (IOWA 1-6 SCALE): 5 (plants in Iowa class 5, imidacloprid @ 400 g/100 kg of seed, FORCE and LORSBAN as surface band at planting): 5
- CORN ROOTWORM DAMAGE IN EACH IOWA CLASS (IOWA 1-6 SCALE): 6 (plants in Iowa class 6, imidacloprid @ 400 g/100 kg of seed, FORCE and LORSBAN as surface band at planting): 0

Source: patent US6593273B2, “Method for reducing pest damage to corn by treating transgenic corn seeds with pesticide” (priority 2000, dated 2003)
